The values that follow come from patent publication US20220257619A1, “LONG-ACTING FORMULATIONS OF TENOFOVIR ALAFENAMIDE” (Gilead Sciences, Inc., priority 2019, published 2022).

Data set [1] can be described thus: physchem. The note with it: 37 °C, organic solvent or mixture, thermodynamic from solid.
Method: Briefly, samples were prepared by mixing active agent and solvent and were tested at various time points after mixing and after storage at various temperatures. The samples were tested for the solubility of the active agent (mg/mL), calculated as the free base equivalent. Each data point is the average of two replicates unless otherwise specified. The data points with an asterisk (*) were taken at 4 days, as opposed to 5 days.
Setting [2] is: solvent BB, 37° C., asterisk: taken at 4 days, as opposed to 5 days.

≈ marks a conversion by molar mass, not a printed value. Read-outs that look alike come from different tables or passages of the source. Marks after values point to notes of the source that are not given here.

In the case of `CC(C)OC(=O)[C@H](C)N[P@](=O)(CO[C@H](C)Cn1cnc2c(N)ncnc21)Oc1ccccc1` [TAF Free base, (S)-isopropyl-2-(((S)-((((R)-1-(6-amino-9H-purin-9-yl)propan-2-yl)oxy)methyl)(phenoxy)phosphoryl)amino)propanoate], the solubility (as a rule, the dissolved amount per volume that the medium holds) at 1 day came out at 15 mg/mL (≈ 31.5 mM) in data set [1] (ACN); 146 mg/mL (≈ 306 mM) in data set [1] (DCM); 96 mg/mL (≈ 201 mM) in data set [1] (DMSO); 96 mg/mL (≈ 201 mM) in data set [1] (NMP); 15 mg/mL (≈ 31.5 mM) in data set [1] (PC). Further, the solubility at 5 days in data set [1] (ACN) is 13 mg/mL (≈ 27.3 mM); in data set [1] (DCM), 384 mg/mL (≈ 806 mM); in data set [1] (DMSO), 182 mg/mL (≈ 382 mM); in data set [1] (NMP) it was 161 mg/mL (≈ 338 mM); in data set [1] (PC), 26 mg/mL (≈ 54.6 mM). Moreover, the “Solubility (mg/mL, Calculated as Free Base Equivalent)” value under setting [2] was 5.0 mg/mL.
For the molecule “tenofovir alafenamide hemifumarate [TAF Hemifumarate]”, the “Solubility (mg/mL, Calculated as Free Base Equivalent)” value runs as follows: (solvent ACN, 37° C./5 days) 11 mg/mL; under setting [2], 3.9* mg/mL; (solvent DCM, 37° C./5 days) 97 mg/mL; (solvent DMSO, 37° C./5 days) 132 mg/mL; (solvent NMP, 37° C./5 days) 160 mg/mL; (solvent PC, 37° C./5 days) 22 mg/mL.
